Measurements from patent publication US20080280810A1, “PEPTIDES HAVING AFFINITY FOR BODY SURFACES” (priority 2006, published 2008).

Experiments:
Parameters in all cases: species or system human
[1] = Color retention after shampoo treatment, peptide as sealant with HC Blue 26 dye; conditions: 0.50 wt % HC Blue 26, peptide 0.25 wt %, 90 min contact, after 6 shampoo treatments; dye alone 25.75
Description: (§1) The peptides used in this Example were prepared as described in Examples 1 and 2. The color retention was quantified using a spectrophotometric measurement technique. A peptide given as SEQ ID NO:41 or SEQ ID NO:42 (38 mg), produced via fermentation as described in Examples 1 and 2, was added to 15 g of an aqueous 0.50 wt % solution of HC Blue 26 (Aldrich) and the solution was allowed to stir for 1 h. A natural white hair tress (1 cm wide, potted, International Hair Importers & Products Inc., Bellerose, N.Y.) was inserted into a 15 mm×125 mm test tube and 13 mL of the peptide/dye mixture was injected into the test tube. The hair tress was immersed in contact with the colorant solution for 90 min and the colorant solution was agitated using a magnetic stirrer. The tress was removed, allowed to drip dry, and then air dried for 30 min. The hair tress was then subjected to a water rinse using copious amounts of deionized water, followed by a shampoo treatment with embrocation for 30 seconds. The shampoo treatment involved the application of Pantene Pro-V Sheer Volume shampoo (Proctor & Gamble, Cincinnati, Ohio) to the hair as follows. […] The color intensity after the shampoo was measured as described in Examples 4-7.

[2] = Color retention after shampoo treatment, peptide as sealant with Basic Red 2 dye; conditions: 0.25 wt % Basic Red 2, peptide 0.25 wt %, 60 min contact, after 10 shampoo treatments; dye alone 29.70
Description: as §1, with “0.25” for “0.50”, “Basic Red 2 (Abbey Color, Philadelphia, Pa.)” for “HC Blue 26 (Aldrich)”, “60” for “90”

[3] = Color retention after shampoo treatment, peptide as sealant with Acid Red 33 dye; conditions: 0.50 wt % Acid Red 33, peptide 0.25 wt %, 30 min contact, after one shampoo treatment; vs uncolored hair; larger = better color retention; dye alone 19.63
Description: The peptides used in this Example were prepared as described in Examples 1-3. The color retention was quantified using a spectrophotometric measurement technique.
A peptide given as SEQ ID NO:41, SEQ ID NO:42, or SEQ ID NO:43 (38 mg), produced via fermentation as described in Examples 1-3, was added to 15 g of an aqueous 0.50 wt % solution of Acid Red 33 (Abbey Color, Philadelphia, Pa.) and the solution was allowed to stir for 1 h. A natural white hair tress (1 cm wide, potted, International Hair Importers & Products Inc., Bellerose, N.Y.) was inserted into a 15 mm×125 mm test tube and 13 mL of the peptide/dye mixture was injected into the test tube. The hair tress was immersed in contact with the colorant solution for 30 min and the colorant solution was agitated using a magnetic stirrer. The tress was removed, allowed to drip dry, and then air dried for 30 min.
The hair tress was then subjected to a water rinse using copious amounts of deionized water, followed by a shampoo treatment with embrocation for 30 seconds. The shampoo treatment involved the application of Pantene Pro-V Sheer Volume shampoo (Proctor & Gamble, Cincinnati, Ohio) to the hair as follows. A quarter-sized drop of the shampoo was distributed evenly over the hair tress and then was massaged aggressively into the hair for 30 sec, after which the hair tress was rinsed with water to remove the shampoo. The hair tress was then dried at room temperature. The entire procedure described above was repeated without the addition of the hair-binding peptide to serve as a control.
The color intensity after the shampoo treatment was measured using an X-Rite® SP78™ Sphere Spectrophotometer (X-Rite, Inc., Grandville, Mich.), by placing the colored hair sample into the photosensor and calculating L*, a* and b* parameters representing the photometer response. An initial baseline L* value was measured for the uncolored hair and all measurements were the average of three individual determinations. Delta E values were calculated using equation 1 below: […]

## P-EQISGSLVAAPW-KRKRK-D (PEQISGSLVAAPWKRKRKD; Peptide having affinity for hair) [HC 74]
[1]
  Delta E: 30.36
[2]
  Delta E: 33.64
[3]
  Delta E: 28.68

## P-TPPELLHGAPRS-KRKRK-D (PTPPELLHGAPRSKRKRKD; Peptide having affinity for hair) [HC 71]
[1]
  Delta E: 27.83
[2]
  Delta E: 32.36
[3]
  Delta E: 25.80
